What all share (type): cell-based, human
Experiment [1] has as its system MYB mRNA. As to the kind of experiment: RT-qPCR splicing assay, MYB canonical junction (CJ) and alternative junction (AJ) mRNA. The note with it: Homo sapiens; for AC50: increase in MYB alternative junction (AJ) mRNA, read-out: MYB AJ AC50. The procedure, abridged: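 Splicing switches were read by TaqMan RT-qPCR on lysates, quantifying exon-exon junctions of the canonical and alternative-exon isoforms. Lysates came from K562 (GAPDH/GUSB reference) or A673 (PPIA reference) cells exposed 24 h to compound in 11 threefold steps from 10 uM, with DMSO ≤0.25%.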
(Quantitative PCR measures a nucleic acid by following its amplification.)

The test system of experiment [2] is Target C. The experiment in a line: HiBiT protein abundance assay, Target C (Promega Nano-Glo HiBiT Lytic Detection System, knock-in K562 cell line). Conditions: Homo sapiens, K562, 24 h, HiBiT K562 cell line, 24 hours, top dose 10 μM; read-out: Effect on protein abundance, Target C (IC50 category). The procedure, abridged:
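Protein abundance was read by Nano-Glo HiBiT lytic luminescence after 24 h compound exposure (10-point, threefold series from 10 μM final) of HiBiT knock-in K562 cells. Parental K562 served as baseline; the 50%-abundance concentration was interpolated from a four-parameter logistic fit.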
Background: HiBiT is a short tag that completes a luciferase, so light tracks the accessible tagged protein.

Experiment [3] concerns MYB. The experiment in a line: HiBiT protein abundance assay, MYB HiBiT K562 cell line. The note with it: 24 hours, top dose 10 μM. The method, boiled down: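 Tagged-protein abundance measured by split-NanoBiT luminescence after lysis, following 24 h compound exposure (37° C; 10 μM top, 3-fold, 10 points; DMSO ≤0.25%) of HiBiT knock-in K562 cells. Percent response vs DMSO and unmodified-cell controls; 4-parameter logistic interpolation at 50% gave IC50.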

The mark [4] stands for this setting: Table 5 panel, canonical junction qPCR, compound concentration having 50% response in CJ decrease, read-out: MYB IC50 (decrease in CJ mRNA levels).
The mark [5] stands for this setting: decrease in MYB canonical junction (CJ) mRNA, RT-qPCR, read-out: MYB CJ IC50.
[6] abbreviates: HiBiT K562 cell line, read-out: Effect on protein abundance, MYB (IC50 category).
[7] abbreviates: HiBiT lytic detection, modified K562 cells, read-out: Effect on protein abundance, MYB (IC50).

Structures can show the parent of a compound that is named as a salt. Where two headings read alike, the source gives them in different places.

What is called IC50 is the concentration that inhibits the measured activity by half. In general, AC50 refers to the midpoint of the concentration-response curve, whichever way the signal moves.

In the case of `Cc1cc(-c2ccc3c(=O)n(N4CCN(C)CC4)cnc3c2)cc2cn(C)nc12` [Compound 175], the concentration for half-maximal inhibition (IC50) in experiment [1] (setting [4]) was 1000 to 10000 nM; in experiment [1] (setting [5]), 1000 to 10000 nM; in experiment [2] it was over 10000 nM; in experiment [3] (setting [6]), 1000 to 10000 nM. In experiment [1] (RT-qPCR), the concentration at half-maximal activity (AC50) lay within 1000 to 10000 nM.

Turning to `Cc1cn2nc(-c3ccc4c(=O)n(C5CCN(C)CC5)cnc4c3)cc(C)c2n1` [Compound 176], the IC50 lay in the range of 100 to 1000 nM in experiment [1] (setting [4]), 1000 to 10000 nM in experiment [1] (setting [5]), 1000 to 10000 nM in experiment [2] and 100 to 1000 nM in experiment [3] (setting [6]). For the same molecule, the AC50 in experiment [1] (RT-qPCR) lay within 100 to 1000 nM.

For the molecule `CN1CCC(c2ccc3c(=O)n(-c4ccc5nn(C)cc5c4)cnc3c2)CC1` [Compound 177], the IC50 in experiment [1] (setting [4]), in experiment [1] (setting [5]), in experiment [2] and in experiment [3] (setting [6]) was over 10000 nM each time. Besides, the concentration at half-maximal activity (AC50) in experiment [1] (RT-qPCR) was over 10000 nM.

On to `CN1CCN(c2ccc3c(=O)n(-c4ccc5cn(C)nc5c4)cnc3c2)CC1` [Compound 178], for which the IC50 in experiment [1] (setting [4]), in experiment [1] (setting [5]), in experiment [2] and in experiment [3] (setting [6]) was over 10000 nM throughout. Besides, in experiment [1] (RT-qPCR), the AC50 is over 10000 nM.

For `Cc1cc(-c2ccc3c(=O)n(C4CC(C)(C)NC(C)(C)C4)cnc3n2)cc2cn(C)nc12` [Compound 179], the IC50 in experiment [1] (setting [4]), in experiment [1] (setting [5]), in experiment [2] and in experiment [3] (setting [6]) was over 10000 nM in each case. Also, the AC50 in experiment [1] (RT-qPCR) is over 10000 nM.

Turning to `CN(c1ccc2c(=O)n(-c3ccc4nn(C)cc4c3)cnc2c1)C1CCNCC1` [Compound 180], the IC50 in experiment [1] (setting [4]), in experiment [1] (setting [5]), in experiment [2] and in experiment [3] (setting [6]) was over 10000 nM each time. For the same molecule, the AC50 in experiment [1] (RT-qPCR) is over 10000 nM.

Take `Cc1cn2nc(-c3ccc4c(=O)n(C5CCNCC5)cnc4c3)cc(C)c2n1` [Compound 181]: the concentration for half-maximal inhibition (IC50) in experiment [1] (setting [4]) is 100 to 1000 nM; in experiment [1] (setting [5]), 100 to 1000 nM; in experiment [2], under 100 nM; in experiment [3] (setting [6]), under 100 nM. Besides, the AC50 in experiment [1] (RT-qPCR) lay within 100 to 1000 nM.

As for `Cc1cc(-c2ccc3c(=O)n(C4CCNC5(CC5)C4)ncc3c2)cc2cn(C)nc12` (centres unmarked) [Compound 512], the IC50 is 1000 to 10000 nM in experiment [1] (setting [4]), 1000 to 10000 nM in experiment [1] (setting [5]), under 100 nM in experiment [2] and 1000 to 10000 nM in experiment [3] (setting [6]). Besides, the AC50 in experiment [1] (RT-qPCR) was in the range of 1000 to 10000 nM.

Consider `Cc1nc2c(C)cc(-c3ccc4c(=O)n(C5CCNC6(CC6)C5)ncc4c3)cc2o1` (centres unmarked) [Compound 513], for which the IC50 in experiment [1] (setting [4]), in experiment [1] (setting [5]), in experiment [2] and in experiment [3] (setting [6]) was 1000 to 10000 nM each time. The AC50 in experiment [1] (RT-qPCR) fell in the range of 1000 to 10000 nM.

Consider `COc1cc(-c2ccc3c(=O)n(C4CCNCC4)ccc3c2)nn2cc(C)nc12` [Compound 514, 6-(8-methoxy-2-methyl-imidazo[1,2-b]pyridazin-6-yl)-2-(4-piperidyl) isoquinolin-1-one; hydrochloride], for which the IC50 in experiment [1] (setting [4]), in experiment [1] (setting [5]), in experiment [2] and in experiment [3] (setting [6]) was under 100 nM each time. Besides, the AC50 in experiment [1] (RT-qPCR) is under 100 nM.

On to `Cc1cn2nc(-c3ccc4c(=O)n(C5CCN(CCF)CC5)ncc4c3)cc(C)c2n1` [Compound 515], for which the IC50 lay in the range of 1000 to 10000 nM in experiment [1] (setting [4]), 100 to 1000 nM in experiment [1] (setting [5]), 1000 to 10000 nM in experiment [2] and 1000 to 10000 nM in experiment [3] (setting [6]). Besides, the AC50 in experiment [1] (RT-qPCR) was in the range of 1000 to 10000 nM.

As to `Cc1cn2nc(-c3ccc4c(=O)n(C5CCNCC5)ccc4c3)cc(C(=O)O)c2n1` [Compound 516, 2-methyl-6-[1-oxo-2-(4-piperidyl)-6-isoquinolyl]imidazo[1,2-b]pyridazine-8-carboxylic acid], the IC50 in experiment [1] (setting [4]), in experiment [1] (setting [5]), in experiment [2] and in experiment [3] (setting [6]) was 1000 to 10000 nM each time. The AC50 in experiment [1] (RT-qPCR) lay within 1000 to 10000 nM.

As for `COC(=O)c1cc(-c2ccc3c(=O)n(C4CCNCC4)ccc3c2)nn2cc(C)nc12` [Compound 517, methyl 2-methyl-6-[1-oxo-2-(4-piperidyl)-6-isoquinolyl]imidazo[1,2-b]pyridazine-8-carboxylate], the half-inhibitory concentration (IC50) fell in the range of 100 to 1000 nM in experiment [1] (setting [4]), 100 to 1000 nM in experiment [1] (setting [5]), 1000 to 10000 nM in experiment [2] and 100 to 1000 nM in experiment [3] (setting [6]). Further, the AC50 in experiment [1] (RT-qPCR) was in the range of 100 to 1000 nM.

As to `CNC(=O)c1cc(-c2ccc3c(=O)n(C4CCNCC4)ccc3c2)nn2cc(C)nc12` [Compound 518, N, 2-dimethyl-6-[1-oxo-2-(4-piperidyl)-6-isoquinolyl]imidazo[1,2-b]pyridazine-8-carboxamide], the IC50 in experiment [1] (setting [4]) was 1000 to 10000 nM; in experiment [1] (setting [5]) it was over 10000 nM; in experiment [2] it was 1000 to 10000 nM; in experiment [3] (setting [6]), 1000 to 10000 nM. Further, in experiment [1] (RT-qPCR), the half-maximal activity concentration (AC50) was 1000 to 10000 nM.

In the case of `Cc1cn2nc(-c3ccc4c(=O)n(C5CCNCC5)ccc4c3)cc(Oc3ccccc3)c2n1` [Compound 519, 6-(2-methyl-8-phenoxy-imidazo[1,2-b]pyridazin-6-yl)-2-(4-piperidyl)isoquinolin-1-one], the IC50 in experiment [1] (setting [4]), in experiment [1] (setting [5]), in experiment [2] and in experiment [3] (setting [6]) was under 100 nM throughout. In experiment [1] (RT-qPCR), the AC50 is under 100 nM.

As to `Cc1cn2nc(-c3ccc4c(=O)n(C5CCNCC5)ccc4c3)cc(CC#N)c2n1` [Compound 520, 2-[2-methyl-6-[1-oxo-2-(4-piperidyl)-6-isoquinolyl]imidazo[1,2-b]pyridazin-8-yl]acetonitrile], the IC50 in experiment [1] (setting [4]) fell in the range of 100 to 1000 nM; in experiment [1] (setting [5]), 100 to 1000 nM; in experiment [2], 1000 to 10000 nM; in experiment [3] (setting [6]) it was 100 to 1000 nM. For the same molecule, in experiment [1] (RT-qPCR), the AC50 was 100 to 1000 nM.

`Cn1ccc2c(cnn2-c2ccc3c(=O)n(C4CCNCC4)ccc3c2)c1=O` [Compound 521]: the IC50 in experiment [1] (setting [4]), in experiment [1] (setting [5]), in experiment [2] and in experiment [3] (setting [6]) was 1000 to 10000 nM in each case. For the same molecule, the AC50 in experiment [1] (RT-qPCR) fell in the range of 1000 to 10000 nM.

For `Cn1ccc2nn(-c3ccc4c(=O)n(C5CCNCC5)ccc4c3)cc2c1=O` [Compound 522, 6-{5-methyl-4-oxopyrazolo[4,3-c]pyridin-2-yl}-2-(piperidin-4-yl)isoquinolin-1-one], the IC50 is over 10000 nM in experiment [1] (setting [4]), over 10000 nM in experiment [1] (setting [5]), over 10000 nM in experiment [2] and 1000 to 10000 nM in experiment [3] (setting [6]). Moreover, the AC50 in experiment [1] (RT-qPCR) was over 10000 nM.

Consider `Cc1cn2nc(-c3ccc4c(=O)n(C5CCNCC5)ccc4c3)cc(C(N)=O)c2n1` [Compound 523, 2-methyl-6-[1-oxo-2-(4-piperidyl)-6-isoquinolyl]imidazo[1,2-b]pyridazine-8-carboxamide], for which the IC50 in experiment [1] (setting [4]), in experiment [1] (setting [5]), in experiment [2] and in experiment [3] (setting [6]) was 1000 to 10000 nM throughout. For the same molecule, the AC50 in experiment [1] (RT-qPCR) lay in the range of 1000 to 10000 nM.

On to `CNC1CCN(c2ccc3cc(-c4cc(C)c5nc(C)cn5n4)ccn3c2=O)C1` (centres unmarked) [Compound 1158], for which the IC50 in experiment [1] (setting [4]), in experiment [1] (setting [5]) and in experiment [3] (setting [7]) was 100 to 1000 nM throughout. In experiment [1] (RT-qPCR), the AC50 was in the range of 100 to 1000 nM.

Take `Cc1cn2nc(-c3ccn4c(=O)c(C5CCNCC5)ccc4c3)cc(C)c2n1` [Compound 1181]: the IC50 in experiment [1] (setting [4]), in experiment [1] (setting [5]) and in experiment [3] (setting [7]) was under 100 nM throughout. Further, the AC50 in experiment [1] (RT-qPCR) is under 100 nM.

Regarding `Cc1cn2nc(-c3ccn4c(=O)c(C5=CCNCC5)ncc4c3)cc(C)c2n1` [Compound 1182], the IC50 in experiment [1] (setting [4]), in experiment [1] (setting [5]) and in experiment [3] (setting [7]) was 100 to 1000 nM in each case. The concentration at half-maximal activity (AC50) in experiment [1] (RT-qPCR) lay in the range of 100 to 1000 nM.

The values are drawn from patent publication US20250332173A1, “COMPOUNDS AND METHODS FOR MODULATING NUCLEIC ACID SPLICING” (REMIX THERAPEUTICS INC., priority 2021, published 2025).
